Experiments:
[1] = test system: NLRP3 inflammasome pathway; assay: NLRP3 inflammasome pathway activation assay, MSU stimulation, IL-1β release (AlphaLISA); format: cell-based; details: PMA-differentiated, LPS-primed human monocyte-like cells, MSU 150 µg/ml for 3 h
Description: (§1) The following assays were used to determine the inhibitory activity of test compounds on the NLRP3 inflammasome pathway using common stimuli Nigericin (Invivogen) or monosodium urate crystals (MSU) (Invivogen).
(§2) Human monocyte-like cells were cultured in RPMI-1640 Glutamax medium supplemented with 10% heat inactivated FCS and 50 U/ml penicillin-streptomycin (Life Technologies).
(§3) Human monocyte-like cells were seeded at 75000 per well in a 96-well plate and were differentiated overnight into macrophages with 10 ng/ml PMA (Phorbol Myristate Acetate). The following day, medium containing 10 ng/ml LPS (Lipopolysaccharide) were added. After 3 hours of LPS priming, concentrations of test compound in the range from 100 µM to 6 nM were added 30 min prior to NLRP3 inflammasome pathway stimulation with Nigericin 3.75 µM or MSU 150 µg/ml for 3 h.
(§4) For IL-1β quantification, supernatants were analyzed using AlphaLISA kits according to the manufacturer’s instructions (Perkin Elmer AlphaLISA AL220F). Briefly, in a 384-well OptiPlate™ microplate, 5 µl of sample was mixed, with 20 µl of AlphaLISA Anti-Analyte Acceptor beads (10 µg/mL final) and Biotinylated Antibody Anti-Analyte (1 nM final). Then, incubated 60 minutes at RT, then 25 µL of 2X SA-Donor beads (40 µg/mL final) were added and incubated 30 minutes at RT in the dark. Reading was done using an EnVision-Alpha Reader (PerkinElmer).
(§5) IC50(concentration corresponding to 50% inhibition) were determined using GraphPad Prism 8.

[2] = test system: NLRP3 inflammasome pathway; assay: NLRP3 inflammasome pathway activation assay, Nigericin stimulation, IL-1β release (AlphaLISA); format: cell-based; details: PMA-differentiated, LPS-primed human monocyte-like cells, Nigericin 3.75 µM for 3 h
Description: as §1, §2, §3, §4, §5

[3] = test system: NLRP3 inflammasome pathway; assay: Human whole blood assay (LPS-ATP), IL-1β levels by AlphaLISA; format: cell-based; details: LPS priming, ATP activation 1 h, IL-1β in plasma
Description: • Preliminary blood hemolysis assessment was performed before running the assay. Blood samples were centrifuged at 1000 g for 10 min. Then, 50 to 100 µL of blood were transferred into Corning™96-Well Clear flat bottom plate. Hemolysis was assessed via Tecan at 414 nm wavelength. Hemolysis O.D. values should be lower than 1. • Add 10 µL LPS 9× or CTRL following plate layout. • Add 80 µL of each whole blood/well in PP low-bind 96-well plate. • Incubate for 2h30 to 3 h at 37° C. and 5% CO2. • Add 10 µL of compounds 10× or control in wells following plate layout. • Incubate for 30 min at 37° C. and 5% CO2. • Add 11 µL ATP 10× or control in all wells following plate layout. • Incubate for 1 h at 37° C. and 5% CO2. • Collect 1 h timepoint → Centrifuge the plate 1000 g 10 min, collect the plasma (40 to 50 µL) and store at -20° C. • Measure IL-1β levels by AlphaLISA
as §4, §5

[4] = test system: NLRP3 inflammasome pathway; assay: LPS-ATP induced peritonitis mouse model, IL-1β in peritoneal lavage; format: in vivo, C57BL/6 female mice; details: mice, intraperitoneal 1 mg/kg or 3 mg/kg (dose not given), 15 min before ATP; peritoneal lavage
Description: C57BL/6 female mice aged 6 to 8 weeks were randomized into experimental groups. Mice were challenged intraperitoneally with 50 µg/kg LPS. Two hours later, mice received i.p. 200 µL of ATP (Adenosine TriPhosphate) 50 mM, pH 7.2. Compounds were administered intraperitoneally at 1 mg/kg or 3 mg/kg, 15 minutes before ATP injection. Thirty minutes after ATP injection, animals were sacrificed by CO2. Cardiac blood was collected through heart puncture. Peritoneal lavage was performed with a total volume of 4 mL of sterile saline solution with intact peritoneum. IL-1b levels were assessed in peritoneal lavage samples via AlphaLisa. Results were expressed as % reduction compared to vehicle-treated group.
as §4

Row | Compound | IC50 [1] [µM] | IC50 ([2]; Homo sapiens, 3 h) [µM] | IC50 [2] [µM] | IC50 [3] [µM] | % IL-1 beta inhibition vs vehicle (peritoneal lavage samples) [4] [%]
1 | CC(C)(C)OC(=O)C1(c2ccno2)CN=C(Nc2c3c(cc4c2CCC4)CCC3)O1 (racemic) [Example 90, tert-butyl 2-((1,2,3,5,6,7-hexahydro-s-indacen-4-yl)amino)-5-(isoxazol-5-yl)-4,5-dihydrooxazole-5-carboxylate] | 1 to 10 | < 1 |  |  | 
2 | CCOC(=O)C1(c2nccn2C)CN=C(Nc2c3c(cc4c2CCC4)CCC3)O1 (single isomer, unassigned) [Example 5, Ethyl 2-((1,2,3,5,6,7-hexahydro-s-indacen-4-yl)amino)-5-(1-methyl-1H-imidazol-2-yl)-4,5-dihydrooxazole-5-carboxylate] | < 1 |  | < 1 |  | 
3 | CCOC(=O)C1(c2ccc(OC)nc2)CN=C(Nc2c3c(cc4c2CCC4)CCC3)O1 (single isomer, unassigned) [Example 7, Ethyl 2-((1,2,3,5,6,7-hexahydro-s-indacen-4-yl)amino)-5-(6-methoxypyridin-3-yl)-4,5-dihydrooxazole-5-carboxylate] | < 1 |  | < 1 |  | 
4 | CCOC(=O)C1(c2ccccn2)CN=C(Nc2c3c(cc4c2CCC4)CCC3)O1 (single isomer, unassigned) [Example 9, Ethyl 2-((1,2,3,5,6,7-hexahydro-s-indacen-4-yl)amino)-5-(pyridin-2-yl)-4,5-dihydrooxazole-5-carboxylate] | < 1 |  | < 1 |  | 
5 | CCOC(=O)C1(c2ccc(Cl)cc2)CN=C(Nc2c3c(cc4c2CCC4)CCC3)O1 (single isomer, unassigned) [Example 10a, Ethyl 5-(4-chlorophenyl)-2-((1,2,3,5,6,7-hexahydro-s-indacene-4-yl)amino)-4,5-dihydrooxazole-5-carboxylate] | < 1 |  | 10 to 30 |  | 
6 | CCOC(=O)C1(c2cccnc2)CN=C(Nc2c3c(cc4c2CCC4)CCC3)O1 (single isomer, unassigned) [Example 11, Ethyl 2-((1,2,3,5,6,7-hexahydro-s-indacen-4-yl)amino)-5-(pyridin-3-yl)-4,5-dihydrooxazole-5-carboxylate] | < 1 |  | < 1 |  | 
7 | CCOC(=O)C1(c2cccc(Cl)c2)CN=C(Nc2c3c(cc4c2CCC4)CCC3)O1 (single isomer, unassigned) [Example 13a, Ethyl 5-(3-chlorophenyl)-2-((1,2,3,5,6,7-hexahydro-s-indacen-4-yl)amino)-4,5-dihydrooxazole-5-carboxylate] | < 1 |  | < 1 |  | 
8 | CCOC(=O)C(O)(CNC(=S)Nc1c2c(cc3c1CCC3)CCC2)c1cc(C(C)(C)O)on1 (single isomer, unassigned) [Example 14a, Ethyl 3-(3-(1,2,3,5,6,7-hexahydro-s-indacen-4-yl)thioureido)-2-hydroxy-2-(5-(2-hydroxypropan-2-yl)isoxazol-3-yl)propanoate] | < 1 |  | < 1 |  | 
9 | CCOC(=O)C1(c2ccon2)CN=C(Nc2c3c(cc4c2CCC4)CCC3)O1 (single isomer, unassigned) [Example 21Bb] | < 1 |  |  | < 1 | 73
10 | CC(C)OC(=O)C1(c2ccon2)CN=C(Nc2c3c(cc4c2CCC4)CCC3)O1 (single isomer, unassigned) [Example 59, isopropyl 2-((1,2,3,5,6,7-hexahydro-s-indacen-4-yl)amino)-5-(isoxazol-3-yl)-4,5-dihydrooxazole-5-carboxylate] | < 1 |  |  | 1 to 10 | 
11 | CCOC(=O)C1(c2ccccc2)CN=C(Nc2c3c(cc4c2CCC4)CCC3)O1 (centres unmarked) [Example 2, Ethyl 2-((1,2,3,5,6,7-hexahydro-s-indacen-4-yl)amino)-5-phenyl-4,5-dihvdrooxazole-5-carboxylate] | 1 to 10 |  | 1 to 10 |  | 
12 | CCOC(=O)C1(c2nccn2C)CN=C(Nc2c3c(cc4c2CCC4)CCC3)O1 (centres unmarked) [Example 3, Ethyl 2-((1,2,3,5,6,7-hexahvdro-s-indacen-4-vl)amino)-5-(1-methyl-1H-imidazol-2-yl)-4,5-dihydrooxazole-5-carboxylate] | < 1 | < 1 |  |  | 
13 | CCOC(=O)C1(c2nccn2C)CN=C(Nc2c3c(cc4c2CCC4)CCC3)O1 (centres unmarked) [Example 4, Ethyl 2-((1,2,3,5,6,7-hexahydro-s-indacen-4-vl)amino)-5-(1-methyl-1H-imidazol-2-yl)-4,5-dihydrooxazole-5-carboxylate] | < 1 |  | < 1 |  | 
14 | CCOC(=O)C1(c2ccc(OC)nc2)CN=C(Nc2c3c(cc4c2CCC4)CCC3)O1 (centres unmarked) [Example 6, Ethyl 2-((1,2,3,5,6,7-hexahydro-s-indacen-4-yl)amino)-5-(6-methoxypyridin-3-yl)-4,5-dihydrooxazole-5-carboxylate] | < 1 | < 1 |  |  | 
15 | CCOC(=O)C1(c2cccnc2)CN=C(Nc2c3c(cc4c2CCC4)CCC3)O1 (centres unmarked) [Example 11a, Ethyl 2-((1,2,3,5,6,7-hexahydro-s-indacen-4-yl)amino)-5-(pyridin-3-yl)-4,5-dihvdrooxazole-5-carboxylate] | < 1 | < 1 |  |  | 
16 | CCOC(=O)C1(c2cccc(Cl)c2)CN=C(Nc2c3c(cc4c2CCC4)CCC3)O1 (centres unmarked) [Example 13, Ethyl 5-(3-chlorophenyl)-2-((1,2,3,5,6,7-hexahydro-s-indacene-4-yl)amino)-4,5-dihvdrooxazole-5-carboxylate] | < 1 | < 1 |  |  | 
17 | CCOC(=O)C1(c2cc(C(C)(C)O)on2)CN=C(Nc2c3c(cc4c2CCC4)CCC3)O1 (centres unmarked) [Example 15, Ethyl 2-((1,2,3,5,6,7-hexahvdro-s-indacen-4-yl)amino)-5-(5-(2-hydroxypropan-2-yl)isoxazol-3-yl)-4,5-dihydrooxazole-5-carboxylate] | < 1 | < 1 |  |  | 
18 | CC(C)(O)c1cc(C2(C(=O)O)CN=C(Nc3c4c(cc5c3CCC5)CCC4)O2)no1 (centres unmarked) [Example 22, 2-((1,2,3,5,6,7-hexahydro-s-indacen-4-yl)amino)-5-(5-(2-hydroxypropan-2-yl)isoxazol-3-yl)-4,5-dihydrooxazole-5-carboxylic Acid] | < 1 | 1 to 10 |  |  | 
19 | O=C(O)C1(c2nccs2)CN=C(Nc2c3c(cc4c2CCC4)CCC3)O1 (centres unmarked) [Example 24, 2-((1,2,3,5,6,7-hexahydro-s-indacen-4-yl)amino)-5-(thiazol-2-yl)-4,5-dihydrooxazole-5-carboxylic acid] | 1 to 10 |  |  | 1 to 10 | 
20 | O=C(O)C1(c2ccon2)CN=C(Nc2c3c(cc4c2CCC4)CCC3)O1 (centres unmarked) [Example 29, 2-((1,2,3,5,6,7-hexahydro-s-indacen-4-yl)amino)-5-(isoxazol-3-yl)-4,5-dihydrooxazole-5-carboxylate] | < 1 |  |  | 1 to 10 | 
21 | CCOC(=O)C(O)(CNC(=S)Nc1c2c(cc3c1CCC3)CCC2)c1cc(C(C)C)on1 (centres unmarked) [Example 46, ethyl 3-(3-(1,2,3,5,6,7-hexahydro-s-indacen-4-yl)thioureido)-2-hydroxy-2-(5-isopropylisoxazol-3-yl)propanoate] | 1 to 10 |  | < 1 |  | 
22 | O=C(OC1CCCC1)C1(c2ccon2)CN=C(Nc2c3c(cc4c2CCC4)CCC3)O1 (centres unmarked) [Example 58, Cyclopentyl 2-((1,2,3,5,6,7-hexahvdro-s-indacen-4-vl)amino)-5-(isoxazol-3-yl)-4,5-dihydrooxazole-5-carboxylate] | < 1 |  |  | 1 to 10 | 
23 | Ethyl 2-((1,2,3,5,6,7-hexahydro-s-indacen-4-yl)amino)-5-(tetrahvdro-2H-pyran-4-yl)-4,5-dihydrooxazole-5-carboxylate [Example 12] | 1 to 10 |  | 1 to 10 |  | 
